This note sets out measurements from ChEMBL document CHEMBL1201862, “PubChem BioAssay data set” (2004).

Holding throughout (assay): NCI-60 cell line screen, 48 h
Test [1] concerns OVCAR-3.
The subject of test [2] is UACC-62.
Test [3] deals with 786-0.
In test [4] the test system is SN12C.
In test [5] the test system is HL-60.
For test [6], the system named is PC-3.
Test [7] has as its system KM12.
Test [8] deals with RXF 393.
Test [9] relates to NCI-H522.
In test [10] the test system is SNB-19.
The subject of test [11] is TK-10.
Test [12] deals with NCI-H460.
For test [13], the system named is K562.
Test [14] concerns MDA-N.
In test [15] the test system is SF-539.
The test system of test [16] is MOLT-4.
The subject of test [17] is ACHN.
The test system of test [18] is SF-268.
Test [19] concerns SK-MEL-28.
In test [20] the test system is HCC 2998.

The structures appear in SMILES notation.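 Results reflect a 48-hour exposure of cells in 96-well plates to compound at five concentrations. GI50: concentration for 50% inhibition of growth.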 The source made the active and inactive calls. Rule as the data show it: active = GI50 up to about 1.1 µM and inactive = higher. Bounds are passed on as bounds.

For the compound `NC(=O)c1c(NC=O)ncn1C1OCC(O)C(O)C1O` (stereo unspecified), the GI50 in test [1], in test [2], in test [3], in test [4], in test [5] and in [6] was > 100 µM (inactive) in each case. Further, the GI50 in test [7], in test [8], in [9], in test [10], in test [11] and in test [12] was > 100 µM (inactive) each time. In addition, the GI50 in test [13], in test [14], in test [15], in test [16], in test [17] and in test [18] was > 100 µM (inactive) each time.

As to `CNc1ccc2nc(-c3ccc(OC(=O)N(C)C)cc3)cn2c1`, the GI50 in test [1] is 40.7 µM (inactive); in test [2], 18.8 µM (inactive); in [3] it was 14.5 µM (inactive); in test [4], 14.1 µM (inactive); in test [5], 22.5 µM (inactive); in test [6], 16 µM (inactive). Further, the GI50 in [7] is 17.1 µM (inactive); in [8], 13.3 µM (inactive); in test [9], 13.7 µM (inactive); in [10], 16.1 µM (inactive); in test [11] it was 17.9 µM (inactive); in [19], 45.8 µM (inactive). Besides, the GI50 in test [12] was 17.5 µM (inactive); in test [13], 21 µM (inactive); in test [20] it was 30.1 µM (inactive); in [14] it was 19.2 µM (inactive); in [16] it was 17.8 µM (inactive); in test [17], 19.2 µM (inactive). For the same compound, the GI50 in test [18] was 16.5 µM (inactive).

In the case of `CCOC(=O)CN1C(=O)c2c(NC(=O)C(=O)O)cccc2S1(=O)=O`, the GI50 in [2], in [3], in [4], in [5], in test [6] and in test [7] was > 100 µM (inactive) throughout. Moreover, the GI50 in test [8], in test [9], in [10], in test [11], in test [19] and in test [12] was > 100 µM (inactive) each time. Also, the GI50 in [13], in test [20], in test [14], in test [16], in test [17] and in test [18] was > 100 µM (inactive) each time.

As for `O=C1OC(=O)C2=C1C(c1cccs1)C=C(c1cccnc1)N2c1ccncc1` (stereo unspecified), the GI50 is 13.4 µM (inactive) in test [1]; 19.9 µM (inactive) in test [2]; 17.3 µM (inactive) in test [3]; 17.1 µM (inactive) in test [4]; 11 µM (inactive) in test [5]; 12.2 µM (inactive) in test [6]. Further, the GI50 in test [7] is 13.4 µM (inactive); in test [8] it was 16.2 µM (inactive); in test [9], 13.8 µM (inactive); in test [10], 18 µM (inactive); in test [11], 17 µM (inactive); in test [19], 24.3 µM (inactive). The GI50 was 17.3 µM (inactive) in test [12]; 9.12 µM (inactive) in test [13]; 14.1 µM (inactive) in test [20]; 17.8 µM (inactive) in test [14]; 23.1 µM (inactive) in test [16]; 16.5 µM (inactive) in test [17]. Further, in test [18], the GI50 was 16.6 µM (inactive).

Regarding `NCC(O)CSP(=O)(O)O` (stereo unspecified), the GI50 in test [1], in [2], in test [3], in [4], in [5] and in test [6] was > 100 µM (inactive) in each case. Moreover, the GI50 in [7], in test [8], in test [9], in test [10], in [11] and in [19] was > 100 µM (inactive) in each case. The GI50 in [12], in test [13], in test [14], in test [16], in test [17] and in test [18] was > 100 µM (inactive) each time.

`CNC(=O)Oc1ccc(-c2cn3cc(OC(=O)NC)ccc3n2)cc1`: the GI50 in [1] is 67.8 µM (inactive); in test [2], 28.4 µM (inactive); in test [3], 26.7 µM (inactive); in test [4] it was 42.8 µM (inactive); in test [6], 49.9 µM (inactive); in test [7] it was 44 µM (inactive). Further, the GI50 in test [8] is 60 µM (inactive); in test [10], 43.3 µM (inactive); in [11], 91.6 µM (inactive); in test [19] it was 92.7 µM (inactive); in test [12] it was 39.4 µM (inactive); in [13], 22.6 µM (inactive). Moreover, the GI50 in test [20] was 49.3 µM (inactive); in test [14] it was 32.8 µM (inactive); in test [15] it was 27.6 µM (inactive); in test [16], 20.5 µM (inactive); in [17] it was 29 µM (inactive); in test [18] it was 19.3 µM (inactive).

Turning to `Nc1n[nH]c2nc3ccc(C(F)(F)F)cc3nc12`, the GI50 in test [2] is 21 µM (inactive); in test [3], 21 µM (inactive); in test [4], 26.2 µM (inactive); in test [6], 25.9 µM (inactive); in [7], 57.1 µM (inactive); in test [8], 16.4 µM (inactive). Moreover, the GI50 was 20.3 µM (inactive) in test [9]; 32.2 µM (inactive) in test [10]; 32.4 µM (inactive) in test [11]; 21.1 µM (inactive) in test [19]; 20.5 µM (inactive) in test [12]; 42.7 µM (inactive) in [13]. Also, the GI50 in test [20] was 37.7 µM (inactive); in [14], 35.3 µM (inactive); in test [16], 43.5 µM (inactive); in test [17] it was 25.1 µM (inactive); in test [18], 33.7 µM (inactive).

Turning to `CCOC(=O)c1cnc(N(C)C)nc1SC(=N)N`, the GI50 in test [1], in test [2], in [3], in test [4], in test [6] and in test [7] was > 100 µM (inactive) each time. Further, the GI50 in test [8], in test [9], in test [10], in test [11], in test [19] and in test [12] was > 100 µM (inactive) in each case. Further, the GI50 in test [13] was > 100 µM (inactive); in test [14] it was > 100 µM (inactive); in test [15] it was > 100 µM (inactive); in test [16], 49.2 µM (inactive); in test [17], > 100 µM (inactive); in test [18], > 100 µM (inactive).

For the compound `O=[N+]([O-])c1ccc(S(=O)(=O)Cc2ccccc2)c2nonc12`, the GI50 was 20.8 µM (inactive) in test [1]; 17.8 µM (inactive) in test [2]; 19.6 µM (inactive) in test [3]; 13.9 µM (inactive) in test [4]; 18.3 µM (inactive) in test [5]; 17.8 µM (inactive) in [6]. Moreover, the GI50 in test [7] is 19.5 µM (inactive); in test [8] it was 17.7 µM (inactive); in [9] it was 18.8 µM (inactive); in [10], 37 µM (inactive); in [11], 18.1 µM (inactive); in test [19], 20.5 µM (inactive). Further, the GI50 was 21.1 µM (inactive) in test [12]; 26.6 µM (inactive) in [13]; 19 µM (inactive) in [14]; 17.9 µM (inactive) in test [15]; 18.7 µM (inactive) in test [16]; 22 µM (inactive) in test [17]. In addition, in test [18], the GI50 was 20 µM (inactive).

Regarding `COc1ccc2oc(S(=O)(=O)N3CC(CCl)c4ccc(N)cc43)cc2c1` (stereo unspecified), the GI50 in test [1] is 0.0395 µM (active); in test [2], 0.0246 µM (active); in test [3], 0.0264 µM (active); in test [4] it was 0.119 µM (active); in test [5] it was 0.022 µM (active); in [6] it was 0.0299 µM (active). Also, the GI50 in [7] is 0.0228 µM (active); in test [9], 0.0184 µM (active); in [10], 0.0608 µM (active); in test [11], 46.8 µM (inactive); in test [19], 54.1 µM (inactive); in test [12] it was 0.0255 µM (active). Moreover, the GI50 in test [13] is 0.0225 µM (active); in test [20], 0.118 µM (active); in [14], 0.0104 µM (active); in test [15], 0.0244 µM (active); in test [16], 0.0652 µM (active); in [17], 0.12 µM (active). Besides, the GI50 in test [18] is 2.01 µM (inactive).

With `COc1ccc(C2C3CCc4ccccc4C3=NN2S(=O)(=O)c2ccc(Cl)cc2)cc1` (stereo unspecified), the GI50 in [1] was 16.6 µM (inactive); in test [2], 13.1 µM (inactive); in [3], 6.93 µM (inactive); in test [4] it was 37 µM (inactive); in test [5] it was 17.9 µM (inactive); in test [6], 17.1 µM (inactive). Also, the GI50 was 7.08 µM (inactive) in [7]; 12.1 µM (inactive) in test [8]; 9.14 µM (inactive) in test [9]; 39.2 µM (inactive) in test [10]; 32.4 µM (inactive) in [11]; 15.8 µM (inactive) in [12]. Moreover, the GI50 in test [13] was 4.98 µM (inactive); in test [14], 2.81 µM (inactive); in [15], 18.3 µM (inactive); in test [16] it was 13.1 µM (inactive); in [17], 15.4 µM (inactive); in test [18], 18.4 µM (inactive).
